Data reported in patent US9187410B2, “Process for isolating tigecycline and tigecycline made therefrom” (Hovione Inter Limited, priority 2009, dated 2015).

Assays:
Assay type in all cases: physicochemical
[1] = DSC after fast stress conditions (oven at 100° C. for 24 hours); details: after 24 hours at 100° C.
Method: The DSC apparatus used was a DSC Q200 from TA Instruments, using the following settings: method—from 25° C. to 300° C. at 3° C./min; modulate +/−0.50° C. every 40 seconds. Spray dried tigecycline and lyophilized tigecycline were submitted to fast stress conditions by placing the samples in an oven at 100° C. for 24 hours. The reversible and total flow DSC curves for the stressed samples were then measured and the results are presented in FIG. 4 and FIG. 5 respectively.

[2] = Modulated differential scanning calorimetry (mDSC/DSC) of amorphous tigecycline; details: unstressed sample; for glass transition temperature (Tg): mDSC, 25° C. to 300° C. at 3° C./min
Method: The DSC apparatus used was a DSC Q200 from TA Instruments, using the following settings: method—from 25° C. to 300° C. at 3° C./min; modulate +/−0.50° C. every 40 seconds. In addition to a higher Tg value, spray dried tigecycline also crystallizes and melts (after crossing the glass transition) at higher temperature than lyophilized tigecycline. By Tg we mean the critical temperature at which the material changes its behaviour from being ‘glassy’ to being ‘rubbery’. ‘Glassy’ in this context means hard and brittle (and therefore relatively easy to break), while ‘rubbery’ means elastic and flexible.

[3] = Dynamic Vapour Sorption (DVS) water uptake; details: 25° C.
Method: We also have performed Dynamic Vapour Sorption studies (DVS) and these studies have shown that samples of tigecycline isolated by spray drying and by lyophilzation have distinctive hygroscopic behavior. […] The DVS conditions were as follows: temperature-25° C.; equilibrium criteria 0.00% w/w every 10 min; maximum equilibrium time—120 min; start RH—5%; maximum RH—95%; steps—10%. A vapor sorption analyzer (VTI-SGA 100) was used. […] The difference in the water uptake between the two forms increases with RH for most of the isotherm. By RH we mean relative humidity, the amount of water vapor that exists in a gaseous mixture of air and water. At 45% humidity, the spray dried sample takes up 2.9% w/w water and lyophilized sample 3.9% w/w water. At 95% humidity, the difference is even more evident: the spray dried form takes up 22.6% w/w water and the lyophilized form 24.5% w/w water. The form obtained by lyophilization is more hygroscopic than the form obtained by spray drying.

| Structure (SMILES) | crystallization temperature after stress [1] [°C] | glass transition temperature after stress [1] [°C] | glass transition temperature (Tg) ([2]; listed as amorphous compound of formula [1] obtained by spray drying) [°C] | crystallisation temperature ([2]; total heat flow DSC) [°C] | water uptake ([3]; 45% humidity, listed as spray dried sample) [% w/w] | water uptake ([3]; 95% humidity, listed as spray dried form) [% w/w] | glass transition temperature (Tg) ([2]; listed as lyophilized compound of formula [1]) [°C] | water uptake ([3]; 45% humidity, listed as lyophilized sample) [% w/w] | water uptake ([3]; 95% humidity, listed as lyophilized form) [% w/w] |
| --- | --- | --- | --- | --- | --- | --- | --- | --- | --- |
| CN(C)c1cc(NC(=O)CNC(C)(C)C)c(O)c2c1C[C@H]1C[C@H]3[C@H](N(C)C)C(O)=C(C(N)=O)C(=O)[C@@]3(O)C(O)=C1C2=O [spray dried tigecycline, tigecycline] | ≥ 154 | ≥ 143 | 129 | ≥ 146 | 2.9 | 22.6 |  |  |  |
| CN(C)c1cc(NC(=O)CNC(C)(C)C)c(O)c2c1C[C@H]1C[C@H]3[C@H](N(C)C)C(O)=C(C(N)=O)C(=O)[C@@]3(O)C(O)=C1C2=O [lyophilized tigecycline, tigecycline] |  |  |  |  |  |  | 126 | 3.9 | 24.5 |
